Results taken from patent publication US12263248B2, “Compounds and compositions for intracellular delivery of therapeutic agents” (ModernaTX, Inc., priority 2018, dated 2025).

Experiments:
hEPO mRNA = experiment: hEPO expression after intravenous administration to rats; type: in vivo, rat; conditions: Table 19B; for Lipid/MC3 ([hEPO] ratio) / Lipid/MC3 AUC: relative to MC3; for [hEPO]: species, dose and time not given
Experimental: The expression of hEPO and cytokine induction in rats intravenously administered a nanoparticle composition at a dose of 2.0 mpk was measured at 6 h.
(§1) The expression of hEPO in rats intravenously administered a nanoparticle composition at a dose of 0.2 mpk or 2.0 mpk was measured at 6 hours. Table 16 summarize the ratio of hEPO expression levels using various nanoparticle compositions as compared to the hEPO expression level using MC3 formulation and the lipid levels in the liver measured 48 hours after administration, as described above. Tables 17 and 18 summarize the lipid levels in the liver and spleen measured 48 hours after administration of Compounds 28, 33, 53, and 54. Liver and spleen levels represent the average values calculated for 3 rats in each group. As is shown in Tables 17 and 18, less than 10% of Compounds 28, 33, 53, and 54 remained in the liver after 48 hours, while greater than 60% of MC3 remained.
The expression of hEPO induced by intravenous administration to rats of nanoparticle compositions at various doses was measured at 2, 4, 6, 8, 24, and 48 hour time points. FIGS. 3-6 respectively summarize the hEPO expression measured upon intravenous administration of formulations including Compounds 26, 18, 25, and MC3 to rat at various doses. The lipid levels of Compound 26 in the liver after 48 hours were about 19%.
(§2) 005781 The expression of hEPO and lipid levels in the liver and spleen in rats intravenously administered a nanoparticle composition at a dose of 0.2 mpk was measured at various time points. Compounds 18 and 25 were selected for comparison with MC3. Lipids were formulated according to the standard MC3 formulation described above. Rats were administered intravenously a single 0.2 mpk dose and expression monitored at 0.25, 0.5, 1, 2, 4, 8, 24, and 48 hours after administration.
Blood collection and analysis for hEPO. Blood was collected from mice or rats via the tail vein and hEPO concentrations were determined using a hEPO ELISA assay.

[1] = Particle size and polydispersity index of nanoparticle compositions (Zetasizer Nano ZS); type: physicochemical
Procedure, shortened: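 Particle size and PDI were measured on a Zetasizer Nano ZS with the nanoparticle compositions dispersed in 1×PBS.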

[2] = Residual lipid levels in rat liver and spleen (UPLC-MS); type: in vivo; conditions: Table 19B, liver, 24 h
Experimental: At 48 h liver tissue was harvested for lipid quantification. To pre-weighed tissues, Milli-Q water was added (900 μL water per 100 mg tissue). Tissues were homogenized using an Omni probe homogenizer until uniform. 50 μL of samples and matrix calibration standards were aliquoted into a 96-well plate. 50 μL of blank matrix for matrix blanks and control blanks were aliquoted. 400 μL is spiking solution were manually added to all samples except matrix blanks. 400 μL of 50:50 ACN:IPA were manually added to matrix blanks. The plate was covered and the samples vortexed and centrifuged for 5 minutes at >3000 rpm. 200 μL of the samples were transferred into a clean 96-well plate for analysis. Samples were analyzed on a Waters Acquity UPLC using a Higgins Analytical Clipeus C8 column ([…], 30×2.1 mm) and a gradient of either 70-95% or 60-95% (Mobile Phase A: 5 mM ammonium formate in 50:50:1 H2O:MeOH:formic acid; Mobile Phase B: 5 mM ammonium formate in 100:1 MeOH:formic acid) over 1.3 min at 1.2 mL/min (column temperature 55° C.). Detection was based on electrospray ionization (ESI) in positive mode using a Sciex API5500 Mass Spectrometer.
as §1, §2

[3] = Encapsulation efficiency of RNA (QUANT-IT RIBOGREEN RNA assay); type: physicochemical
Procedure, shortened: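 RiboGreen fluorescence (ex ~480, em ~520 nm) compared between intact samples and Triton X-100-lysed samples after 15 min at 37 °C in TE buffer, pH 7.5. Percent free RNA is the blank-corrected intact/disrupted ratio.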

[4] = Lipid clearance: lipid level in mouse liver tissue (LC-MS/MS); type: in vivo; conditions: Table 3D, intravenous
Experimental: Quantification of Lipid by LC-MS/MS: Liver samples were homogenized following addition of 19 eq. (w/v) of water (DF=20). Protein was precipitated and analyzed against calibration standards prepared in matching blank. Chromatographic separation and quantification was accomplished with a LC-MS/MS System. Samples were injected and separated via HPLC A triple-quadrupole MS/MS system operated in positive ion mode was used for signal detection.

[5] = Apparent (surface) pKa of the LNP formulation (TNS assay); type: physicochemical; conditions: for pKa: Table 1A
Procedure, shortened: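 LNP (0.04 mg/mL mRNA) mixed with TNS reagent in 21 buffers spanning about pH 3-12, in triplicate; fluorescence plotted against pH as sigmoidal curve. Apparent pKa taken as […] curve inflection point; validated in 1× PBS and 20 mM Tris w/8% sucrose.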

luciferase (Luc) mRNA [6] = experiment: Luc expression in liver, lung, spleen and femur 6 hours after intravenous administration; type: in vivo; conditions: mice, intravenous, 0.5 mpk
Procedure, shortened: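 LNP-formulated mRNA given IV to mice (n=3) at 0.5 mpk; at 6 h, bioluminescence imaged ex vivo 15 min after IP D-luciferin (15 mg/mL, 200 μL), organs imaged within 25 min. Values are total flux by region of interest.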

luciferase (Luc) mRNA [7] = experiment: Luc expression, whole body bioluminescence after intravenous administration to mice; type: in vivo; conditions: for Lipid/MC3 AUC / AUC (p/s * h): Table 3D; for AUC (p/s * h): Luc; for Total Flux 3 hours / Total Flux 6 hours / Total Flux 24 hours: mice, i.v., 0.5 mg/kg, Luc mRNA
Procedure, shortened: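 Luc mRNA nanoparticle formulations given intravenously to mice (n=6) at 0.5 mg/kg; whole-body bioluminescence imaged at 3, 6 and 24 h. CD-1 mice received IP D-luciferin (200 μL of 15 mg/mL) 15 min before imaging; total flux quantified by region of interest.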

luciferase (Luc) mRNA [8] = experiment: Luc expression (total flux) after intramuscular administration; type: in vivo, mice; conditions: Table 3H; intramuscular, Luc
Procedure, shortened: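 Mice given a single intramuscular dose of lipid nanoparticle formulations carrying modified Luc mRNA, alone or with H10 mRNA, at 0.001 or 0.01 mpk total. Luciferase expression recorded as total flux.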

[9] = Table 1B, formulated with hEPO mRNA
[10] = second column (head also says 6 h)
[11] = Table 1A, lipid:DSPC:cholesterol:PEG-DMG 50:10:38.5:1.5 mol %

| SMILES | AUC (hEPO) (hEPO mRNA) [pg·h/mL] | Lipid/MC3 ([hEPO] ratio) (hEPO mRNA) | Lipid/MC3 AUC (hEPO mRNA) | [hEPO] (hEPO mRNA) [pg/mL] | PDI [1, 9] | Size (nm) [1, 9] [nm] | % Dose Remaining in Liver 6 h [4, 10] [%] | % Dose Remaining in Liver 6 h [4] [%] | pKa [5] | Total Flux Liver (luciferase (Luc) mRNA [6]) | Total Flux Lung (luciferase (Luc) mRNA [6]) | Total Flux Spleen (luciferase (Luc) mRNA [6]) | Lipid/MC3 AUC (luciferase (Luc) mRNA [7]; intravenous) | AUC (p/s * h) (luciferase (Luc) mRNA [7]; intravenous) | Total Flux 3 hours (luciferase (Luc) mRNA [7]) | Total Flux 6 hours (luciferase (Luc) mRNA [7]) | Total Flux 24 hours (luciferase (Luc) mRNA [7]) | PDI ([1]; Table 1A) | Size (nm) [1, 11] [nm] | EE (%) ([3]; Table 1A) | other results |
| --- | --- | --- | --- | --- | --- | --- | --- | --- | --- | --- | --- | --- | --- | --- | --- | --- | --- | --- | --- | --- | --- |
| CCCCCCCCC(CCCCCCCC)OC(=O)CCCCCCCN(CCO)CCCCCC(=O)OC(C)CCCCCCCCOC(C)=O (centres unmarked) [Compound 235, Heptadecan-9-yl 8-((6-((10-acetoxydecan-2-yl)oxy)-6-oxohexyl)(2-hydroxyethyl)amino)octanoate] | 1.71e+07 | 0.8601 | 0.93 | 1.27e+06 | 0.24 | 228 | – | – | – | – | – | – | – | – | – | – | – | – | – | – | % dose remaining, liver, 24 h [2]: 0.06%; EE (%) [3, 9]: 40.9% |
| CCCCCCCCC(CCCCCCCC)OC(=O)CCCCCCCN(C)CCCCCCCCCCCC(=O)OCCCCC [Compound 150, Pentyl 12-((8-(heptadecan-9-yloxy)-8-oxooctyl)(methyl)amino)dodecanoate] | – | – | – | – | – | – | <1 | <1 | 6.101 | 1.54E+09 | 2.20E+06 | 3.43E+07 | 1.4 | 2.704E+011 | 1.66E+10 | 2.31E+10 | 3.86E+08 | 0.082 | 63.1 | 96.72 | – |
| CCCCCCCCCOC(=O)CCCCCCCN(CCO)CCCCCCCCCC(CCCCCCCC)CCCCCCCC [Compound 153, Nonyl 8-((2-hydroxyethyl)(10-octyloctadecyl)amino)octanoate] | – | – | – | – | – | – | <1 | <1 | 6.580 | 1.18E+09 | 6.42E+06 | 1.42E+08 | 1.4 | 2.697E+011 | 1.69E+10 | 2.28E+10 | 5.10E+08 | 0.150 | 83.7 | 98.39 | – |
| CCCCCCCCCOC(=O)CCCCCCCN(CCCCCCCC(=O)OC(CCCCCCCC)CCCCCCCC)CCCC(N)=O [Compound 243, Heptadecan-9-yl 8-((4-amino-4-oxobutyl)(8-(nonyloxy)-8-oxooctyl)amino)octanoate] | 445000 | 0.02755 | 0.02 | 40600 | 0.35 | 90.6 | – | – | – | – | – | – | – | – | – | – | – | – | – | – | % dose remaining, liver, 24 h [2]: 0.05%; EE (%) [3, 9]: 99.4% |
| CCCCCCCCCOC(=O)CCCCCCCN(CCCCCCCC(=O)OC(CCCCCCCC)CCCCCCCC)C(C)CO (centres unmarked) [Compound 157, Heptadecan-9-yl 8-((1-hydroxypropan-2-yl)(8-(nonyloxy)-8-oxooctyl)amino)octanoate] | – | – | – | – | – | – | <1 | <1 | 6.275 | 2.27E+09 | 6.70E+06 | 5.15E+07 | 1.3 | 2.481E+011 | 8.54E+09 | 2.22E+10 | 1.90E+08 | 0.093 | 61 | 96.04 | App. pKa ([5]; Table 3F): 6.27; AUC (p/s * h) (luciferase (Luc) mRNA [8]): 4.68E+08 p/s * h; Lipid/MC3 AUC (luciferase (Luc) mRNA [8]): 0.80; Novel lipid/MC3 expression ratio, 6 hr. time point, i.v. (luciferase (Luc) mRNA [7]; luciferase, intravenous, relative to MC3 formulation): 1.29 |
